# Measurements as given in PubChem BioAssay AID652281 (Sanford-Burnham Center for Chemical Genomics, 2013).
# Activity calls are given as the source filed them.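 How the source made its calls: active means compounds toxic to worms, with a half-maximal toxicity dose of 25 µM or lower; inactive means the rest.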
# Test system: C. elegans VP596 worm health composite score, 20-22 h
# Test: C. elegans worm health toxicity scoring, SAR follow-up, cytotoxicity control for SKN-1 inhibitor project, whole organism, strain VP596, composite health score, round 2 (AID 652281)
row,Compound,IC50
1,COc1cc(CNC2CCCC2)cc(F)c1OCc1ccc(Cl)cc1,> 64 µM (inactive)
2,COc1cc(CNC2CCCC2)cc(Cl)c1OCc1ccc(Cl)cc1,> 64 µM (inactive)
3,CCOc1cc(CN2CCCCC2)cc(Cl)c1OCc1ccc(Cl)cc1,> 64 µM (inactive)
4,CCOc1cc(CNCC2CC2)cc(Cl)c1OCc1ccc(Cl)cc1,> 64 µM (inactive)
5,CCOc1cc(CN2CCOCC2)cc(Cl)c1OCc1ccc(F)cc1,> 64 µM (inactive)
6,CCOc1cc(CN(C)C2CCCC2)cc(Cl)c1OCc1ccc(Cl)cc1,> 64 µM (inactive)
7,CCOc1cc(CN2CCCC2)cc(Cl)c1OCc1ccc(Cl)cc1,> 64 µM (inactive)
8,CCOc1cc(CNC2CCCC2)cc(Cl)c1OCc1ccc(Cl)cc1F,> 64 µM (inactive)
9,CCOc1cc(CN2CCOCC2)cc(Cl)c1OCc1ccc(Cl)cc1,> 64 µM (inactive)
10,CCCNCc1cc(Cl)c(OCc2ccc(Cl)cc2)c(OCC)c1,> 64 µM (inactive)
11,COc1cc(CNC2CCCC2)cc(Br)c1OCc1ccc(Cl)cc1,> 64 µM (inactive)
12,CCOc1cc(CN2CCN(C)CC2)cc(Cl)c1OCc1ccc(F)cc1,> 64 µM (inactive)
13,Clc1ccc(COc2c(Cl)cc(CNC3CCCC3)cc2Cl)cc1,> 64 µM (inactive)
14,C=CCNCc1cc(Cl)c(OCc2ccc(Cl)cc2)c(OCC)c1,> 64 µM (inactive)
15,Cc1cc(CNC2CCCC2)cc(C)c1OCc1ccc(Cl)cc1,> 64 µM (inactive)
16,CCOc1cc(CNC2CC2)cc(Cl)c1OCc1ccc(Br)cc1,> 64 µM (inactive)
17,CCOc1cc(CN2CCCC2)cc(Cl)c1OCc1ccc(F)cc1,> 64 µM (inactive)
18,CCOc1cc(CNC)cc(Cl)c1OCc1ccc(Cl)cc1,> 64 µM (inactive)
19,CCOc1cc(CNC2CCCC2)cc(Cl)c1OCc1ccc(Br)cc1,> 64 µM (inactive)
20,CCOc1cc(CN2CCCCC2)cc(Cl)c1OCc1ccc(F)cc1,> 64 µM (inactive)
21,CCOc1cc(CNC2CCCC2)cc(Cl)c1OCc1ccc(C#N)cc1,> 64 µM (inactive)
22,C#CCNCc1cc(Cl)c(OCc2ccc(Cl)cc2)c(OCC)c1,> 64 µM (inactive)
23,CCOc1cc(CN2CCN(C)CC2)cc(Cl)c1OCc1ccc(Cl)cc1,> 64 µM (inactive)
24,CCOc1cc(CN(C(C)=O)C2CCCC2)cc(Cl)c1OCc1ccc(Cl)cc1,> 64 µM (inactive)
25,CCOc1cc(CNC2CC2)cc(Cl)c1OCc1ccc(C#N)cc1,> 64 µM (inactive)
26,CCOc1cc(CNC2CC2)cc(Cl)c1OCc1ccc(Cl)cc1F,> 64 µM (inactive)
27,CCOc1cc(CNC2CC2)cc(Cl)c1OCc1ccc(Cl)cc1,> 64 µM (inactive)
